Results taken from patent USRE37770E1, “Treatment of skin conditions by use of PPARα activators” (The Regents of the University of California, priority 1997, dated 2002).

Columns and labels:
transglutaminase protein = assay: Transglutaminase protein level in keratinocytes by Western blotting; type: cell-based, Human; conditions: for TG'ase protein level relative to the control: low calcium (0.03 mM), 24 hours
Experimental: Protein concentration was assessed by protein electrophoresis and Western blotting. Cells were lysed is 2% SDS and the lysate sonicated. Protein determinations were made by use of a Bicinchoninic add protein assay (Pierce Chemical Company, Rockford, Ill. USA). Following protein determination, equal amounts at protein (50 μg) were separated by electrophoresis an 7.5% polyacrylamide gels and electroblotted onto polyvinylidene […] membranes (0.2-μ, obtained from Bio-Rad Laboratories Hercules, Calif., USA). Involucrin protein was detected by incubation over-night at 4° C. C. with a polyclonal rabbit anti-human involucrin antibody (1:1000 dilution). The involucrin-specific bands on the autoradiograms were quantitated by densitometry by densitometry. Transglutaminase protein expression was measured in a similar […], using stacking, sample and running buffers containing 4 M urea, and the gels following electrophoresis were washed in 4 M urea, 25 mM TRIS-HCl, pH 7.4, 7.5 mM NaCl, 0.1 mM dithiothreitol (DTT), and 2 mM ethylenediamine tetraacetic acid for 90 minutes prior to electoblotting, allowing the transglutaminase to be detected by antibody. Specific bands on the autoradiograms were quantified by densitometry. Levels of involucrin and transglutaminase protein were measured in keratinocytes incubated in low calcium (0.03 mM) and treated with the test compounds for 24 hours. The are shown in the bar graph of FIG. 17a, where the test compounds are compared with the vehicle alone (control) and cholesterol, using the same bar indications as in FIGS 14 through 16. […] Cholesterol had no effect.

involucrin mRNA [1] = assay: Involucrin mRNA in keratinocytes by Northern Blot; type: cell-based, Human; conditions: for involucrin (INV) mRNA level compared to the vehicle alone: low calcium (0.03 mM), 24 hours, 10 μM
Experimental: (§1) Human keratinocyte cells were incubated in culture containing calcium at a concentration of 0.03 mM Ca^++ (a level that is too low to induce differentiation). Also included in the culture medium were clofibrate at 400 μM or ETYA at 10 μM and 20 μM, while separate cell cultures were maintained as controls with neither clofibrate nor ETYA. The production of mRNA for both involucrin and transglutaminase was measured at intervals over a 48-hour time period (0, 6, 12, 24, and 48 hours) by Northern Blot analysis. In each case, the lighter bars represent the control cells and the darker bars the cells incubated in the clofibrate-containing medium. The degree of mRNA generated is expressed as a percent of the control at zero hours.
(§2) Human epidermis was isolated from newborn foreskins and keratinocytes were plated in serum-free keratinocyte growth medium (“KGM”; Clonetics, San Diego, Calif. USA), using conventional techniques. Cells were treated with either the test compounds in vehicle or vehicle alone (<0.1% ethanol) for 24 or 48 hours. The test compounds were obtained from Sigma Chemical Co. (St. Louis. Mo. USA) and were stored as 15 mM stock solutions at −20° C. Mevalonate was solubilized in sterile water.
(§3) Total RNA was isolated by using TRIZOL (Sigma Chemical Co.), following the manufacturer's protocol. Ethanol-precipitate RNA pellets were suspended in sterile, diethylpyrocarbonate (DEPC)-treated water, and RNA was quantified by absorbance at 260 nm using the 260/280 nm ratio as an index of purity. RNA (15 μg per sample) was size fractionated through a 1% agarose gel containing 2.2 M formaldehyde. RNA integrity was visualized following acridine orange staining of the gel following electrophoresis. The RNA was transfered to a nylon membrane that was subsequently baked at 80° C. for 2 hours. Blots were hybridized with the appropriate ^32p-labeled probe overnight at 65° C. Washes were then performed in a solution containing 0.1% SSC and 0.1% sodium dedecyl sulfate (SDS) for 20 minutes at room temperature, followed by a 20-minute wash at 65° C. Autoradiography was performed at −70° C. Blots were probed with β-actin to confirm equal loading. Appropriate bands were quantified by densitometry.
(§4) Northern blot analyses were performed on keratinocytes maintained in low calcium (0.03 mM) and incubated for 24 hours in the presence of vehicle alone (<0.1% ethanol) or vehicle containing 25-hydroxycholesterol (10 μM), 22(R)-hydroxycholesterol (10 μM) cholesterol (10 μM), or mevalonate (500 μM) (individually). The mRNA levels of involucrin (“INV”) and transglutaminase (“TG'ase”) are shown in the bar graph of FIG. 14a, the INV indicated by clear bars and the TG'ase by shaded bars, both with error limits shown.

transglutaminase mRNA [2] = assay: Transglutaminase mRNA in keratinocytes by Northern Blot; type: cell-based, Human; conditions: calcium 1.2 mM, 10 μM, 24 hours
involucrin mRNA [3] = assay: Involucrin mRNA in keratinocytes by Northern Blot; type: cell-based, Human; conditions: calcium 1.2 mM, 10 μM, 24 hours
involucrin protein = assay: Involucrin protein level in keratinocytes by Western Blot; type: cell-based, Human; conditions: for increase in INV protein: high calcium (1.2 mM), 15 μM; for INV protein level relative to the control: low calcium (0.03 mM), 24 hours
Experimental: Measurements of the level of the involucrin protein itself were performed in the culture medium by Western Blot. Various incubations were performed, in media containing clofibrate at concentrations ranging from 0 (vehicle only) to 400 μM and calcium ion at both 0.03 mM and 1.2 mM. The results are shown in FIG. 9a for tests with calcium ion at 0.03 mM, and in FIG. 9b for tests with calcium ion at 1.2 mM. In these figures, the protein contents are expressed as percents of the respective measurements taken from media incubated for the same period of time but in the absence of clofibrate.
The procedures of Example 8 were followed, and measurements were taken on the involucrin protein levels from cells incubated at various concentrations of farnesol and juvenile hormone III ranging from 0 (vehicle only) to 15 μM, in media containing 0.03 mM and 1.2 mM calcium ion, for 24 hours. The results are shown in FIG. 10 for farnesol and FIG. 11 for juvenile hormone III, in 0.03 mM Ca^++.
Protein concentration was assessed by protein electrophoresis and Western blotting. Cells were lysed is 2% SDS and the lysate sonicated. Protein determinations were made by use of a Bicinchoninic add protein assay (Pierce Chemical Company, Rockford, Ill. USA). Following protein determination, equal amounts at protein (50 μg) were separated by electrophoresis an 7.5% polyacrylamide gels and electroblotted onto polyvinylidene […] membranes (0.2-μ, obtained from Bio-Rad Laboratories Hercules, Calif., USA). Involucrin protein was detected by incubation over-night at 4° C. C. with a polyclonal rabbit anti-human involucrin antibody (1:1000 dilution). The involucrin-specific bands on the autoradiograms were quantitated by densitometry by densitometry. Transglutaminase protein expression was measured in a similar mmaner, using stacking, sample and running buffers containing 4 M urea, and the gels following electrophoresis were washed in 4 M urea, 25 mM TRIS-HCl, pH 7.4, 7.5 mM NaCl, 0.1 mM dithiothreitol (DTT), and 2 mM ethylenediamine tetraacetic acid for 90 minutes prior to electoblotting, allowing the transglutaminase to be detected by antibody. Specific bands on the autoradiograms were quantified by densitometry.

transglutaminase mRNA [4] = assay: Transglutaminase mRNA in keratinocytes by Northern Blot; type: cell-based, Human; conditions: for transglutaminase (TG'ase) mRNA level compared to the vehicle alone: low calcium (0.03 mM), 24 hours, 10 μM
Experimental: as §1, §2, §3, §4

keratinocytes = assay: Rate of DNA synthesis (3H-thymidine incorporation) in keratinocytes; type: cell-based, Human; conditions: 10 μM, 24 hours, low calcium (0.03 mM); 16-hour 3H-thymidine period
Experimental: The rate of DNA synthesis was determined by measuring the incorporation of ^3H-thymidine into cellular DNA after 16 hours of incubation with 2 μCi^3H-thymidine per mL of media (110 Ci/mmol methyl-1′,2′-^3H-thymidine (Amersham Laboratories, Arlington Heights, Ill. USA). The cells were then solubilized in 1N NaOH, and the radioactivity in the washed TCA precipitate was quantitated by scintillation spectroscopy.
Using the procedures set forth in the Materials and Methods section above, 25-hydroxycholesterol (10 μM) and 22(R)-hydroxycholesterol (10 μM, were compared with cholesterol (10 μM) and the vehicle alone control), with treatment for 24 hours under low calcium (0.03 mM) condition. The results are shown in the bar graph of FIG. 19.

[5] = system: Normal human keratinocytes; assay: Cornified envelope formation (35S incorporation) in keratinocytes; type: cell-based; conditions: 10 μM, 48 hours
[6] = doses 0-15.0 μM, low calcium, FIG. 15

Structure (SMILES) | TG'ase protein level relative to the control (transglutaminase protein) | involucrin (INV) mRNA level compared to the vehicle alone (involucrin mRNA [1]) | TG'ase mRNA level, induction (transglutaminase mRNA [2]) | INV mRNA level, induction (involucrin mRNA [3]) | increase in INV protein (involucrin protein) | INV protein level relative to the control (involucrin protein) | transglutaminase (TG'ase) mRNA level compared to the vehicle alone (transglutaminase mRNA [4]) | rate of DNA synthesis (keratinocytes) | increase in cornified envelope (CE) formation ([5]; high calcium (1.2 mM)) | increase in cornified envelope (CE) formation ([5]; low calcium (0.03 mM)) | increase in TG'ase protein level (transglutaminase protein; high calcium (1.2 mM), 5 μM) [fold] | EC50 (involucrin mRNA [1]; Homo sapiens, Keratinocyte, doses 0-15.0 μM, low calcium, FIG. 15, read-out: dosage of half-maximal effects on INV mRNA) [µM] | dosage of maximal effects on INV mRNA (involucrin mRNA [1]; [6]) [µM] | EC50 (transglutaminase mRNA [4]; Homo sapiens, Keratinocyte, doses 0-15.0 μM, low calcium, FIG. 15, read-out: dosage of half-maximal effects on TG'ase mRNA) [µM] | dosage of maximal effects on TG'ase mRNA (transglutaminase mRNA [4]; [6]) [µM]
CC(C)CCC[C@@H](C)[C@H]1CC[C@H]2[C@@H]3CC=C4C[C@@H](O)CC[C@]4(C)[C@H]3CC[C@]12C [cholesterol] | had no effect | neither cholesterol (“chol”) nor mevalonate (“mev”) had any effect | no effect | no effect | essentially no increase | had no effect | neither cholesterol (“chol”) nor mevalonate (“mev”) had any effect | 117 % of control | no increase | no increase |  |  |  |  | 
CC(C)CC[C@@H](O)[C@@H](C)[C@H]1CC[C@H]2[C@@H]3CC=C4C[C@@H](O)CC[C@]4(C)[C@H]3CC[C@]12C [22(R)-hydroxycholesterol] | approximately 2.8 fold | approximate twofold increase |  |  | 2.8 fold | approximately 3.2 fold | approximate twofold increase | 42 % of control | 2.1 fold | 1.3 fold | 2.1 | ~5 | 10 to 15 | ~5 | 10 to 15
